Laboratory results as given in US20070049635A1 (priority 2003, published 2007).
Like-named read-outs stand apart in the source and are kept apart here.

Tests used:
Pyricularia oryzae [1] = type: in vivo; conditions: wettable powder diluted to 200 ppm sprayed on rice pots (Koshihikari, 2-leaf stage); spore spray-inoculation; examined after 7 days
Pyricularia oryzae [2] = type: in vivo; conditions: granules applied to water surface at 1.5 kg/10 ares; rice Koshihikari; inoculated 30 days after application; lesions examined after 1 week

**Q.** “N-(2,2,2-trichloroethyloxycarbonyl)-N′-(4-methylbenzoyl)-3-methyl-1,2-butanediamine [Compound No. 7]” was tested. Which “Effect (preventive value)” value (Pyricularia oryzae [1]) did it give?
**A.** Its value is “A (80% or more)”.

**Q.** How did the “Effect (preventive value)” value (Pyricularia oryzae [1]) turn out when `CCC(C)C(CNC(=O)c1nc2ccccc2s1)NC(=O)OCC(F)(F)F` (stereo not shown) [compound 33] was run?
**A.** Its value is “A (80% or more)”.

**Q.** How did the “Effect (preventive value)” value (Pyricularia oryzae [1]) turn out when `Cc1ccc(C(=O)NCC(NC(=O)OCC(F)(F)C(F)(F)C(F)(F)F)C(C)C)cc1` (stereo not shown) [compound 13] was run?
**A.** The value was “A (80% or more)”.

**Q.** For `Cc1ccc(C(=O)NC(CNC(=O)OC(C(F)(F)F)C(F)(F)F)C(C)C)cc1` (stereo not shown) [Compound No. 8, N-(1,1,1,3,3,3-hexafluoro-2-propyloxycarbonyl)-N′-(4-methylbenzoyl)-3-methyl-1,2-butanediamine], which “Effect (preventive value)” value (Pyricularia oryzae [1]) is on record?
**A.** The value was “A (80% or more)”.

**Q.** With `Cc1ccc(C(=O)NCC(NC(=O)OCCF)C(C)C)cc1` (stereo not shown) [compound 2] as the molecule, how does the “Effect (preventive value)” value (Pyricularia oryzae [1]) read?
**A.** The value was “A (80% or more)”.

**Q.** What about the “Effect (preventive value)” value (Pyricularia oryzae [2]) of the same molecule?
**A.** The value was “A (80% or more)”.

**Q.** How did the “Effect (preventive value)” value (Pyricularia oryzae [1]) turn out when `Cc1ccc(C(=O)NCC(NC(=O)OCCC(F)(F)C(F)(F)C(F)(F)C(F)(F)F)C(C)C)cc1` (stereo not shown) [compound 14] was run?
**A.** The value was “B (50% or more and less than 80%)”.

**Q.** Which results are given for `CC(C)(C)C(CNC(=O)c1cc2ccccc2o1)NC(=O)OCC(F)(F)F` (stereo not shown) [compound 31]?
**A.** Effect (preventive value) (Pyricularia oryzae [1]): A (80% or more); Effect (preventive value) (Pyricularia oryzae [2]): A (80% or more)

**Q.** Which results are given for `CC(C)C(CNC(=O)c1cc2ccccc2o1)NC(=O)OCC(F)(F)F` (stereo not shown) [compound 28]?
**A.** Effect (preventive value) (Pyricularia oryzae [1]): A (80% or more); Effect (preventive value) (Pyricularia oryzae [2]): A (80% or more)

**Q.** Which results are given for `Cc1ccc(C(=O)NCC(NC(=O)Oc2ccc3ccccc3c2)C(C)C)cc1` (stereo not shown) [Formula (7), reference compound]?
**A.** Effect (preventive value) (Pyricularia oryzae [1]): C (less than 50%); Effect (preventive value) (Pyricularia oryzae [2]): C (less than 50%)

**Q.** With `CSCC(C)OC(=O)NC(CNC(=O)c1ccc(C)cc1)C(C)C` (stereo not shown) [Formula (8), reference compound] as the molecule, how does the “Effect (preventive value)” value (Pyricularia oryzae [1]) read?
**A.** Its value is “C (less than 50%)”.

**Q.** What about the “Effect (preventive value)” value (Pyricularia oryzae [2]) of the same molecule?
**A.** Its value is “C (less than 50%)”.

**Q.** For `CCC(CC)C(CNC(=O)c1ccc(C)cc1)NC(=O)OCC(F)(F)F` (stereo not shown) [compound 39], which “Effect (preventive value)” value (Pyricularia oryzae [1]) is on record?
**A.** The value was “A (80% or more)”.

**Q.** How did the “Effect (preventive value)” value (Pyricularia oryzae [1]) turn out when `CC(C)C(CNC(=O)c1nc2ccccc2s1)NC(=O)OCC(F)(F)F` (stereo not shown) [compound 38] was run?
**A.** Its value is “A (80% or more)”.

**Q.** Which “Effect (preventive value)” value (Pyricularia oryzae [1]) does the source give for `CC(C)C(CNC(=O)c1nc2ccc(F)cc2s1)NC(=O)OCC(F)(F)F` (stereo not shown) [compound 37] here?
**A.** Its value is “A (80% or more)”.

**Q.** `Cc1ccc(C(=O)NCC(NC(=O)OCCCCl)C(C)C)cc1` (stereo not shown) [compound 10] was tested. Which “Effect (preventive value)” value (Pyricularia oryzae [1]) did it give?
**A.** The value was “A (80% or more)”.

**Q.** Which “Effect (preventive value)” value (Pyricularia oryzae [1]) does the source give for “N-(2,2,2-trifluoroethyloxycarbonyl)-N′-(4-methylbenzoyl)-3-methyl-1,2-butanediamine [Compound No. 6]” here?
**A.** The value was “A (80% or more)”.

**Q.** What about the “Effect (preventive value)” value (Pyricularia oryzae [2]) of the same molecule?
**A.** The value was “A (80% or more)”.

**Q.** How did the “Effect (preventive value)” value (Pyricularia oryzae [1]) turn out when `Cc1ccc(C(=O)NCC(NC(=O)OC2CCCCC2F)C(C)C)cc1` (stereo not shown) [compound 16] was run?
**A.** The value was “A (80% or more)”.

**Q.** For “N-(chloromethyloxycarbonyl)-N′-(4-methylbenzoyl)-3-methyl-1,2-butanediamine [Compound No. 1]”, which “Effect (preventive value)” value (Pyricularia oryzae [2]) is on record?
**A.** Its value is “A (80% or more)”.

**Q.** `Cc1ccc(C(=O)NCC(NC(=O)OC(CBr)CBr)C(C)C)cc1` (stereo not shown) [compound 11] was tested. Which “Effect (preventive value)” value (Pyricularia oryzae [1]) did it give?
**A.** Its value is “B (50% or more and less than 80%)”.

**Q.** How did the “Effect (preventive value)” value (Pyricularia oryzae [1]) turn out when `Cc1ccc(C(=O)NCC(NC(=O)OCC(F)(F)F)C(C)(C)C)cc1` (stereo not shown) [compound 24] was run?
**A.** Its value is “A (80% or more)”.

**Q.** And the “Effect (preventive value)” value (Pyricularia oryzae [2])?
**A.** The value was “A (80% or more)”.

**Q.** How did the “Effect (preventive value)” value (Pyricularia oryzae [1]) turn out when `C=C(Cl)COC(=O)NC(CNC(=O)c1ccc(C)cc1)C(C)C` (stereo not shown) [compound 15] was run?
**A.** The value was “A (80% or more)”.

**Q.** And the “Effect (preventive value)” value (Pyricularia oryzae [2])?
**A.** The value was “A (80% or more)”.

**Q.** `Cc1ccc(C(=O)NCC(NC(=O)OCCBr)C(C)C)cc1` (stereo not shown) [compound 4] was tested. Which “Effect (preventive value)” value (Pyricularia oryzae [1]) did it give?
**A.** The value was “A (80% or more)”.

**Q.** How did the “Effect (preventive value)” value (Pyricularia oryzae [1]) turn out when `Cc1ccc(C(=O)NCC(NC(=O)OCC(F)(F)F)C2CCCC2)cc1` (stereo not shown) [compound 36] was run?
**A.** Its value is “A (80% or more)”.

**Q.** For `Cc1ccc(C(=O)NCC(NC(=O)OC(CF)CF)C(C)C)cc1` (stereo not shown) [compound 9], which “Effect (preventive value)” value (Pyricularia oryzae [1]) is on record?
**A.** The value was “A (80% or more)”.

**Q.** Which results are given for `CCC(C)C(CNC(=O)c1ccc(C)cc1)NC(=O)OCC(F)(F)F` (stereo not shown) [compound 25]?
**A.** Effect (preventive value) (Pyricularia oryzae [1]): A (80% or more); Effect (preventive value) (Pyricularia oryzae [2]): A (80% or more)

**Q.** Which “Effect (preventive value)” value (Pyricularia oryzae [1]) does the source give for `Cc1ccc(C(=O)NC(CNC(=O)OC2CCCCC2Cl)C(C)C)cc1` (stereo not shown) [Compound No. 17, N-(2-chlorocyclohexyloxycarbonyl)-N′-(4-methylbenzoyl)-3-methyl-1,2-butanediamine] here?
**A.** The value was “A (80% or more)”.

**Q.** For `Cc1ccc(C(=O)NCC(NC(=O)OCCI)C(C)C)cc1` (stereo not shown) [compound 5], which “Effect (preventive value)” value (Pyricularia oryzae [1]) is on record?
**A.** The value was “A (80% or more)”.

**Q.** For `CCC(C)C(CNC(=O)c1cc2ccccc2o1)NC(=O)OCC(F)(F)F` (stereo not shown) [compound 32], which “Effect (preventive value)” value (Pyricularia oryzae [1]) is on record?
**A.** The value was “A (80% or more)”.

**Q.** With `Cc1ccc(C(=O)NCC(NC(=O)OCCCl)C(C)C)cc1` (stereo not shown) [compound 3] as the molecule, how does the “Effect (preventive value)” value (Pyricularia oryzae [1]) read?
**A.** The value was “A (80% or more)”.

**Q.** Which “Effect (preventive value)” value (Pyricularia oryzae [1]) does the source give for `Cc1ccc(C(=O)NCC(NC(=O)OC(C)C(F)(F)F)C(C)C)cc1` (stereo not shown) [compound 30] here?
**A.** The value was “A (80% or more)”.

**Q.** What about the “Effect (preventive value)” value (Pyricularia oryzae [2]) of the same molecule?
**A.** The value was “A (80% or more)”.

**Q.** Which “Effect (preventive value)” value (Pyricularia oryzae [1]) does the source give for `CC(C)C(CNC(=O)c1cc2ccccc2s1)NC(=O)OCC(F)(F)F` (stereo not shown) [compound 34] here?
**A.** The value was “A (80% or more)”.
